Where two headings read alike, the source gives them in different places.
What was measured:
hSTING [1] = target: T1, hSTING (Homo sapiens, UniProt Q86WV6); assay: hSTING titration of fluorescein-labeled cyclic dinucleotide probes by fluorescence polarization; format: binding; conditions: 50 nM probe, 1× PBS, 5 min room temperature, n = 3; read-out: Kd (dissociation constant, probe-hSTING)
T1 construct: SUMO; His; made in house; host or cells: E. coli Rosetta 2(pLysS)

hSTING [2] = target: T1, hSTING; conditions: cited from earlier work; for Kd: natural cyclic dinucleotides, read-out: Kd (binding constant for hSTING)
hSTING [3] = target: T1, hSTING; assay: Probe displacement assay: F-c-di-GMP displaced from hSTING by unlabeled cyclic dinucleotides (FP); format: binding; conditions: 50 nM F-c-di-GMP, 10 μM hSTING; read-out: apparent half maximal inhibitory concentration (displacement of F-c-di-GMP)
hENPP1 [4] = tested on: T2, hENPP1; assay: ENPP1 cGAMP hydrolysis tracking, HPLC analysis; format: biochemical, human; conditions: ENPP1 9.16 nM, 50 μM cGAMP
T2 construct: purchased R&D Systems

hENPP1 [5] = tested on: T2, hENPP1; assay: ENPP1 cGAMP hydrolysis tracking, FP assay detection; format: biochemical, human; conditions: ENPP1 9.16 nM, 50 μM cGAMP
[6] = ENPP1 hydrolysis products of cGAMP, stated without reference

T1 sequence (Q86WV6 155-341 limits assumed): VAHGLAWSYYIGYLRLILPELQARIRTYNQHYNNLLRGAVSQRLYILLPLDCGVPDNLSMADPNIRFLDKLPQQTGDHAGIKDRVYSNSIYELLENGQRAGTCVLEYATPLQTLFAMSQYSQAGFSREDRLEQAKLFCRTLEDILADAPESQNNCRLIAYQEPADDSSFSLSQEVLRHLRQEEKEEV

**Q.** Which Kd (hSTING [1]) does the source give for “2′-O-(6-[fluoresceinyl]aminohexylcarbamoyl)-cyclic diadenosine monophosphate [F-c-di-AMP]” here?
**A.** 29.8 ± 6.3 µM

**Q.** With “2′-O-(6-[fluoresceinyl]aminohexylcarbamoyl)-cyclic diguanosine monophosphate [F-c-di-GMP]” as the compound, how does the Kd (hSTING [1]) read?
**A.** 3.45 ± 0.48 µM

**Q.** With `Nc1ncnc2c1ncn2[C@@H]1O[C@H](COP(=O)(O)O)[C@@H](O)[C@H]1O` [AMP] as the compound, how does the hSTING binding (hSTING [2]; [6]) read?
**A.** do not bind

**Q.** For `Nc1nc2c(ncn2[C@@H]2O[C@H](COP(=O)(O)O)[C@@H](O)[C@H]2O)c(=O)[nH]1` [GMP], which hSTING binding (hSTING [2]; [6]) is on record?
**A.** do not bind

**Q.** Which hSTING binding (hSTING [2]; poxin product of cGAMP) does the source give for `Nc1nc2c(ncn2[C@@H]2O[C@H](CO)[C@@H](O)[C@H]2OP(=O)(O)OC[C@H]2O[C@@H](n3cnc4c(N)ncnc43)[C@H](O)[C@@H]2OP(=O)(O)O)c(=O)[nH]1` [Gp[2′–5′]Ap[3′]] here?
**A.** does not bind

**Q.** Which results are given for `Nc1ncnc2c1ncn2[C@@H]1O[C@@H]2COP(=O)(O)O[C@H]3[C@@H](O)[C@H](n4cnc5c(N)ncnc54)O[C@@H]3COP(=O)(O)O[C@H]2[C@H]1O` [c-di-AMP]?
**A.** IC50 (hSTING [3]): 7.35 ± 0.86 µM; Kd (hSTING [2]): 1.38 µM

**Q.** With `Nc1nc2c(ncn2[C@@H]2O[C@@H]3COP(=O)(O)O[C@H]4[C@@H](O)[C@H](n5cnc6c(=O)[nH]c(N)nc65)O[C@@H]4COP(=O)(O)O[C@H]3[C@H]2O)c(=O)[nH]1` [c-di-GMP] as the compound, how does the IC50 (hSTING [3]) read?
**A.** 7.41 ± 0.49 µM

**Q.** And the Kd (hSTING [2])?
**A.** 1.21 µM

**Q.** With `Nc1nc2c(ncn2[C@@H]2O[C@@H]3COP(=O)(O)O[C@H]4[C@@H](O)[C@H](n5cnc6c(N)ncnc65)O[C@@H]4COP(=O)(O)O[C@@H]2[C@@H]3O)c(=O)[nH]1` [cGAMP, 2′3-cGAMP] as the compound, how does the “cGAMP percent cleavage HPLC” value (hENPP1 [4]; 0 min) read?
**A.** 0%

**Q.** What about the “cGAMP percent cleavage HPLC” value (hENPP1 [4]; 10 min) of the same compound?
**A.** 44%

**Q.** And the “cGAMP percent cleavage HPLC” value (hENPP1 [4]; 20 min)?
**A.** 56%

**Q.** And the “cGAMP percent cleavage HPLC” value (hENPP1 [4]; 40 min)?
**A.** 76%

**Q.** What about the “cGAMP percent cleavage HPLC” value (hENPP1 [4]; 50 min) of the same compound?
**A.** 85%

**Q.** What about the “cGAMP percent cleavage FP Assay” value (hENPP1 [5]; 0 min) of the same compound?
**A.** 0%

**Q.** And the “cGAMP percent cleavage FP Assay” value (hENPP1 [5]; 10 min)?
**A.** 49%

**Q.** What about the “cGAMP percent cleavage FP Assay” value (hENPP1 [5]; 20 min) of the same compound?
**A.** 77%

**Q.** And the “cGAMP percent cleavage FP Assay” value (hENPP1 [5]; 30 min)?
**A.** 98%

**Q.** What about the “cGAMP percent cleavage FP Assay” value (hENPP1 [5]; 40 min) of the same compound?
**A.** 95%

**Q.** And the “cGAMP percent cleavage FP Assay” value (hENPP1 [5]; 50 min (assumed 100% cleavage))?
**A.** 100%

— PMC8341399, “A STING-based fluorescent polarization assay for monitoring activities of cyclic dinucleotide metabolizing enzymes” (RSC Chemical Biology, 2020)
